Measured values as given in ChEMBL document CHEMBL1148544, “Discovery, SAR, and X-ray structure of novel biaryl-based dipeptidyl peptidase IV inhibitors” (Bioorg Med Chem Lett, 2006).

Tests used:
Dipeptidyl peptidase 4 = Dipeptidyl peptidase 4 (Homo sapiens, UniProt P27487)
[1] = Permeability from apical to basolateral side of the Caco-2 cell membrane at 10 uM; type: ADME, cell-based; conditions: human
[2] = Permeability from basolateral to apical side of the Caco-2 cell membrane at 10 uM; type: ADME, cell-based; conditions: human
[3] = Stability in human liver microsomes at 1 uM; type: ADME, Microsome; conditions: read-out: Stability

Sequence of Dipeptidyl peptidase 4 (P27487 whole entry): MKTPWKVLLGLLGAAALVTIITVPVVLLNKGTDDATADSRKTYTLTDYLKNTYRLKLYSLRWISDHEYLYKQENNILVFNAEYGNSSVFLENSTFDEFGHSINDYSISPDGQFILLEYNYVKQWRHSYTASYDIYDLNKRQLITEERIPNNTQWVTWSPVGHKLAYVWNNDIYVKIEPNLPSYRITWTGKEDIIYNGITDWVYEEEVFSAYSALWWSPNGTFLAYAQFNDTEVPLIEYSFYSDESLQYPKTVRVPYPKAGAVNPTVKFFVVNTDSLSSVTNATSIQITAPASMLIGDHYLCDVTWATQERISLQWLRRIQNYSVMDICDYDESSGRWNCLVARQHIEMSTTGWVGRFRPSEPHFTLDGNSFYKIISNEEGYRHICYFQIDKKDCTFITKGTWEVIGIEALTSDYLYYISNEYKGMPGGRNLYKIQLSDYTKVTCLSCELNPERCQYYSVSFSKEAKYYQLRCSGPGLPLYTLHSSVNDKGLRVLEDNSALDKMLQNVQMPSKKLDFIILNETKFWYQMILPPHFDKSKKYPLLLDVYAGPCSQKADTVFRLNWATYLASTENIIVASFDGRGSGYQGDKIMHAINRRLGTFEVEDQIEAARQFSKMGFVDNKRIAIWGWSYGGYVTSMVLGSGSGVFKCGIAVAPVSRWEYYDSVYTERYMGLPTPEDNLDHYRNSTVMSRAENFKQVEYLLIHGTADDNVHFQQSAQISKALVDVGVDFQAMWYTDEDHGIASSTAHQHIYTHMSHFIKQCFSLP

| SMILES | Ki (Dipeptidyl peptidase 4) [µM] | Papp A→B at 10 µM [1] [×10⁻⁶ cm/s] | Papp B→A at 10 µM [2] [×10⁻⁶ cm/s] | remaining at 1 µM [3] [%] |
| --- | --- | --- | --- | --- |
| N[C@@H](Cc1c[nH]c2ccccc12)C(=O)N1CCSC1 | > 12.8 |  |  |  |
| N#C[C@@H]1CCCN1C(=O)[C@@H](N)Cc1ccc(-c2ccc(F)cc2)cc1 |  | 7.21 | 4.45 | 6.7 |
| N#C[C@@H]1CCCN1C(=O)[C@@H](N)Cc1ccc(-c2ccccc2)cc1 |  | 2.66 | 3.82 | 52.3 |
| N[C@@H](Cc1ccc(-c2ccccc2)cc1)C(=O)N1CCC[C@H]1CO | > 12.8 |  |  |  |

Other lines, results leading:

| Ki (Dipeptidyl peptidase 4) [µM] | Papp A→B at 10 µM [1] [×10⁻⁶ cm/s] | Papp B→A at 10 µM [2] [×10⁻⁶ cm/s] | remaining at 1 µM [3] [%] | SMILES |
| --- | --- | --- | --- | --- |
| > 12.8 |  |  |  | N[C@@H](Cc1cccc2ccccc12)C(=O)N1CCSC1 |
|  | 4.56 | 1.5 | 62 | N[C@@H](Cc1ccc(-c2ccccc2)cc1)C(=O)N1CCSC1 |
|  | 4.93 | 4.93 | 73.9 | N#C[C@@H]1CCCN1C(=O)[C@@H](N)Cc1ccc(-c2ccc(F)cc2F)cc1 |
|  | 16.8 | 5.61 | 78.5 | N[C@@H](Cc1ccc(-c2ccc(F)cc2)cc1)C(=O)N1CCSC1 |
| > 12.8 |  |  |  | CC1(C)OCCN1C(=O)[C@@H](N)Cc1ccc(-c2ccccc2)cc1 |
| > 12.8 |  |  |  | N[C@@H](Cc1ccc(-c2ccccc2)cc1)C(=O)N1CCC[C@H]1COCc1ccccc1 |
